{
  "source": "patent US10792377B2",
  "about": "“Compounds and method for imaging cancer” (Vanderbilt University, priority 2017, dated 2020)",
  "key": {"ovine COX-1": {"biological_target": "T1, ovine COX-1 (Ovis aries, UniProt P05979)", "T1 sequence (P05979 25-600)": "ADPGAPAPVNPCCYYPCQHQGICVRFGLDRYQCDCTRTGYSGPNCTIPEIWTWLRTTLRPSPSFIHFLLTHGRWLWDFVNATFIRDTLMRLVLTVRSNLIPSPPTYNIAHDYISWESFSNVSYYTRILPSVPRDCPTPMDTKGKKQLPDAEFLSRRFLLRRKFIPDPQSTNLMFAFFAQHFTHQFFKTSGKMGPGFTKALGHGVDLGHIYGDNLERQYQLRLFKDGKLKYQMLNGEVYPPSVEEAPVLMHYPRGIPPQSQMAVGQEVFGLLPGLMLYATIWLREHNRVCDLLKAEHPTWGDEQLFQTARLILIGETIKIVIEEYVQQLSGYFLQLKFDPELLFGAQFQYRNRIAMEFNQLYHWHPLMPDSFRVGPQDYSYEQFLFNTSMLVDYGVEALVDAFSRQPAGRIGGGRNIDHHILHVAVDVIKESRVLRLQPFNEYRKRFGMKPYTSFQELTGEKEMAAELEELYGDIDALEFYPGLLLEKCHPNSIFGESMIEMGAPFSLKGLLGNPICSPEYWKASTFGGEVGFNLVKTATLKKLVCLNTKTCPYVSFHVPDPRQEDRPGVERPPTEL", "test": "In vitro purified COX-1 inhibition assay (TLC, 14C-arachidonic acid)", "assay_type": "biochemical", "experimental": "The in vitro cyclooxygenase (ovine COX-1 or human COX-2) inhibitory activities of these probes were tested by a previously described TLC assay (FIGS. 19-21). Briefly, reaction mixtures of 200 μL consisted of hematin-reconstituted protein in 100 mM Tris-HCl, pH 8.0, 500 μM phenol, and [1-^14C]arachidonic acid (50 μM, about 55-57 mCi/mmol, Perkin Elmer).\nInhibition Assay Using Purified COX-1 and COX-2. Inhibition of purified ovine COX-1 or mouse COX-2 by test compounds was assayed by a previously described method, which quantifies the conversion of [1-^14C]arachidonic acid to [1-^14C]prostaglandin products. Reaction mixtures of 200 ∝L consisted of hematin-reconstituted protein in 100 mM Tris-HCl, pH 8.0, 500 μM phenol, and [1-^14C]arachidonic acid (50 μM, ˜55-57 mCi/mmol, Perkin Elmer). […] Reactions were terminated by solvent extraction in diethyl ether:methanol:1 M citrate buffer, pH 4.0 (30:4:1). The phases were separated by centrifugation at 2000 g for 2 min, and the organic phase was spotted on a thin-layer chromatography plate (EMD Kieselgel 60, VWR). The plate was developed in ethyl acetate:methylene chloride:glacial AcOH (75:25:1) at 4° C. Radiolabeled products were quantified with a radioactivity scanner (Bioscan, Inc., Washington, D.C.)."}, "[1]": {"test": "Fluorometry: extinction, quantum yield, fluorescence in DMSO/EtOH", "assay_type": "physicochemical", "experimental": "The TEMPO- and PROXYL-fluorocoxib probes are non-fluorescent (Φfl<0.3) in their non-trapped form, whereas fluorocoxib A or B are highly fluorescent (Φfl[…]) (FIG. 13). However, the absorbance and fluorescence of the TEMPO- and PROXYL-fluorocoxib probes increases in a time-dependent fashion when incubated in a DMSO/EtOH solution (FIGS. 14-15). Referring to FIG. 15, it is noted that at about 16 hours, fluorescence (ex 586 nm) read about 120,000 cps at 607 nm. Turning to FIG. 16, as compared to 5-ROX acid, which had extinction of 36/mM/cm at 580 nm and quantum yield of 0.94 at 604 nm, and fluorocoxib A, which had extinction of 45/mM/cm at 579 nm and quantum yield of 0.93 at 602 nm, fluorocoxib Q1 had extinction of less than 0.4/mM/cm at 586 nm and quantum yield of less than 0.36 at 607 nm. Without wishing to be bound by theory, it is believed that the time-dependent increase in fluorescence and measured fluorescence at 607 nm is the result of reduction/oxidation of fluorocoxib Q1 in the DMSO/EtOH solution (FIG. 16).\nFluorometry. Steady state fluorescence excitation and emission spectra were determined for each compound with a Spex 1681 Fluorolog spectrofluorometer, equipped with a 450 W xenon arc lamp. […]"}, "1483 HNSCC cells": {"system": "1483 HNSCC cells", "test": "Fluorescence microscopy of 1483 HNSCC cells", "assay_type": "cell-based, human", "settings": "1483 cells, 0.5 h preincubation", "experimental": "To test the specific activation of probes in cancer cells, compound 1 was incubated at selected time points (0.5, 1.0, 2.0, 3.0 h). After washout, the cells were imaged under fluorescence microscope.\nFluorescence microscopy of 1483 HNSCC cells. Fluorescence imaging of human 1483 HNSCC cells by compound 1 was performed by a previously described method. Briefly, human 1483 HNSCC cells were grown to 60% confluence. The cells were incubated in 2.0 ml Hank's balanced salt solution (HBSS)/Tyrode's with 200 nM compound 1 for 30 min at 37° C. The cells were then washed briefly three times and incubated in HBSS/Tyrode's for 30 min at 37° C. Following the required washout period, the cells were imaged in 2.0 ml fresh HBSS/Tyrode's on a Zeiss Axiovert 25 Microscope with the propidium iodide filter (0.5-1.0 sec exposure, gain of 2)."}},
  "note": "Like-named read-outs stand apart in the source and are kept apart here.",
  "data": [
    {"smiles": "COc1ccc2c(c1)c(CC(=O)NCCCCNC(=O)c1ccc(C3=c4cc5c6c(c4Oc4c3cc3c7c4CCCN7CCC3)CCC[N+]=6CCC5)c(C(=O)NC3CC(C)(C)N([O])C(C)(C)C3)c1)c(C)n2C(=O)c1ccc(Cl)cc1", "note": "[Compound 1]", "values": [
      {"measurement": "IC50", "setting": "ovine COX-1", "result": "> 25", "unit": "µM"}
    ]},
    {"smiles": "COc1ccc2c(c1)c(CC(=O)NCCCCNC(=O)c1ccc(C3=c4cc5c6c(c4Oc4c3cc3c7c4CCCN7CCC3)CCC[N+]=6CCC5)c(C(=O)[O-])c1)c(C)n2C(=O)c1ccc(Cl)cc1", "note": "[Fluorocoxib A, reference compound]", "values": [
      {"measurement": "extinction", "setting": "[1]; at 580 nm (5-ROX acid), 579 nm (fluorocoxib A), 586 nm (fluorocoxib Q1)", "result": 45, "unit": "mM⁻¹ cm⁻¹"},
      {"measurement": "quantum yield", "setting": "[1]; at 604 nm (5-ROX acid), 602 nm (fluorocoxib A), 607 nm (fluorocoxib Q1)", "result": 0.93},
      {"measurement": "IC50", "setting": "ovine COX-1; high throughput screening of fluorocoxib and chemocoxib libraries, read-out: purified COX-1 IC50", "result": "> 25", "unit": "µM"},
      {"measurement": "IC50", "setting": "ovine COX-1; purified ovine COX-1 (22.5 nM), inhibitor 20 min, then 1-14C-AA (50 μM) 37° C. 30 s, duplicates, read-out: oCOX-1 IC50", "result": "> 25", "unit": "µM"},
      {"measurement": "intracellular fluorescence", "setting": "1483 HNSCC cells", "result": "bright fluorescence"}
    ]}
  ]
}
